Reference: patent US12391799B2, “Peptoid polymers and methods of use” (X-Therma, Inc., priority 2017, dated 2025)
Numbered stars: 1 amine (or outer) side, 2 acyl side, 3 side chain; on linkers, the order of the positions; unused ones are H or OH. Square brackets hold non-standard residues; d marks the D form. Peptide text beside a SMILES is read from it. X1 = CC(O)CN(CC(=O)[*:2])[*:1]; NPrGly = CCCNCC(=O)O; Sar = CNCC(=O)O

Key:
[1] = Vitrification screening assay (critical EG concentration); format: physicochemical; details: for Critical Ethylene Glycol Concentration: lowest EG for complete vitrification of 20 μL sample, 5 mg/mL peptoid in formulation, liquid nitrogen immersion
Experimental: As another means of increasing the throughput of library analysis, a vitrification screening assay was performed to evaluate anti-icing efficacy. For these experiments the compounds named “Compound 11,” “Compound 12,” “Compound 25,” Compound 26,” “Compound 27,” “Compound 28,” “Compound 60,” “Compound 62,” “Compound 63,” “Compound 64,” “Compound 69,” “Compound 70,” “Compound 71,” “Compound 72,” “Compound 73,” “Compound 74,” “Compound 75,” “Compound 76,” “Compound 77,” “Compound 78,” “Compound 81,” “Compound 82,” “Compound 83,” “Compound 84,” and “Compound 85” were tested.
For these experiments, 20 μL samples were flash frozen by liquid immersion in liquid nitrogen. Ethylene glycol (EG) concentrations between 5% and 25% (v/v) were used. A concentration of 5 mg/mL of peptoid polymer compounds were used in formulation. Table 12 lists the lowest concentration of EG necessary to bring about complete vitrification of a 20 μL sample with peptoid polymer in formulation, referred to as the “critical EG concentration.” A sample of formulation without the presence of a peptoid polymer was only able to bring about vitrification at 20% or more EG. Peptoid polymers of interest were able to bring about vitrification within formulas containing EG when the concentration of EG was lower than 20%.

[2] = test system: HEK293 cells; experiment: HEK293 survival after storage at −80° C. for 3 days (Alamar Blue); format: cell-based, human; details: 1% peptoid in XT Formula, HEK293 stored at −80° C. for 3 days, vs. XT Formula alone
Experimental: Several compounds were examined in XT Formula at 1% concentration (i.e., 1% peptoid polymer concentration) for their effects on the cryopreservation of HEK293 cells, an adherent cell line derived from human embryonic kidney cells. In particular, the effects of these compounds on the survival of HEK293 cells stored at −80° C. for 3 days were evaluated. An Alamar Blue assay was used to assess cell survival 1 day after stored cells were thawed. A 10% DMSO formula and DMEM cell media only were used as controls.

[3] = test system: K562 cells; experiment: Cell toxicity assay in K562 cell culture; format: cell-based; details: 24 hours at 37° C. and 5% CO2
Experimental: The cytotoxicity of several compounds were evaluated using a typical cell toxicity assay in K562 cell culture. […] As a positive control, some cells were incubated without any peptoid polymer (DMEM). For a negative control, cells were incubated with DMSO (DMEM+10% DMSO).

[4] = test system: K562 cells; experiment: K562 viability after storage at −20° C. for 3 days (Alamar Blue); format: cell-based; details: 1% peptoid in XT Formula, K562 stored at −20° C. for 3 days, vs. XT Formula alone
Experimental: Several compounds were examined in XT Formula at 1% concentration (i.e., 1% peptoid polymer concentration) for their ability to increase the viability of cells subjected to super-cooled storage. XT Formula contains HTK buffer, among other components. In particular, the effects of these compounds on the viability of K562 cells stored at −20° C. for 3 days were evaluated. An Alamar Blue assay was used to assess cell viability 7 days after stored cells were thawed.

[5] = test system: HEK 293 cell line; experiment: Cell-based cytotoxicity assay (MTT); set-up: species or system human; details: serial dilutions in culture media, 37° C., about 3 to 5 days
Experimental: A Tecan Genesis Robotic Workstation was used to prepare solutions in 96- and 384-well plates. Solutions contained culture media, buffers, a cryoprotectant composition (Compound 12) or DMSO. Solutions were adjusted to the desired pH. Serial dilutions were performed to obtain solutions containing various concentrations of Compound 12 and DMSO. Control experiments were performed using only culture media.
For these experiments, cells were seeded at low density (i.e., 10% confluence), exposed to solutions containing Compound 12 or DMSO, and placed in a 37° C. incubator. The cells were allowed to grow until control cells that were treated only with empty vehicle approached 70% confluence (typically about 3 to 5 days). Assessment for compound cytotoxicity was via MTT assay.

SMILES | Critical Ethylene Glycol Concentration [1] | cell survival 1 day after thaw [2] | cell viability 7 days after thaw [4] | other results
CCC(C)N(CC(=O)N(CC(=O)N(CC(=O)N(CC(=O)N(CC(=O)N(CC(=O)N(CC(N)=O)CC(C)O)CC(C)O)C(C)CC)C(C)CC)CC(C)O)CC(C)O)C(=O)CN(C(=O)CN(CC(C)O)C(=O)CNCC(C)O)C(C)CC (stereo not shown) [Compound 11] | 15.0% (ν/ν) | improved cell survival compared to XT Formula alone |  | 
CNCC(=O)N(C)CC(=O)N(C)CC(=O)N(CC(=O)N(CC(=O)N(CC(=O)N(C)CC(=O)N(C)CC(=O)N(C)CC(=O)N(CC(N)=O)CC(C)O)CC(C)O)CC(C)O)CC(C)O (stereo not shown) [Compound 15] (H-[Sar][Sar][Sar][X1][X1][X1][Sar][Sar][Sar][X1]-NH2) |  |  |  | cytotoxicity (cell persistence) ([3]; 1% concentration): persisted about as well as cell incubated in cell culture media alone (DMEM)
CCCNCC(=O)N(CCC)CC(=O)N(CC(=O)N(CC(=O)N(CCC)CC(=O)N(CCC)CC(=O)N(CC(=O)N(CC(=O)N(CCC)CC(=O)N(CCC)CC(N)=O)CC(C)O)CC(C)O)CC(C)O)CC(C)O (stereo not drawn) [Compound 27, Npr-Npr-Nhp-Nhp-Npr-Npr-Nhp-Nhp-Npr-Npr] (H-[NPrGly][NPrGly][X1][X1][NPrGly][NPrGly][X1][X1][NPrGly][NPrGly]-NH2) | 12.5% (ν/ν) | improved cell survival compared to XT Formula alone | improved cell viability compared to XT Formula alone | 
CCC(C)NCC(=O)N(CC(=O)N(CCOC)CC(=O)N(CCOC)CC(=O)N(CC(=O)N(CC(=O)N(CCOC)CC(=O)N(CCOC)CC(=O)N(CC(=O)N(CC(N)=O)C(C)CC)C(C)CC)C(C)CC)C(C)CC)C(C)CC (stereo not drawn) [Compound 62, Nsb-Nsb-Nmo-Nmo-Nsb-Nsb-Nmo-Nmo-Nsb-Nsb] | 12.5% (ν/ν) | improved cell survival compared to XT Formula alone | improved cell viability compared to XT Formula alone | EG required to permit vitrification ([1]; 20 μL sample, 5 mg/mL peptoid, formulation without peptoid needs 20% or more EG): required significantly less EG in order to permit vitrification; cytotoxicity (cell persistence) ([3]; 1% concentration): persisted about as well as cell incubated in cell culture media alone (DMEM)
CNCC(=O)N(C)CC(=O)N(CC(=O)N(CC(=O)N(C)CC(=O)N(C)CC(=O)N(CC(=O)N(CC(=O)N(C)CC(=O)N(C)CC(N)=O)CC(C)O)CC(C)O)CC(C)O)CC(C)O (stereo not drawn) [Compound 64, Nme-Nme-Nhp-Nhp-Nme-Nme-Nhp-Nhp-Nme-Nme] (H-[Sar][Sar][X1][X1][Sar][Sar][X1][X1][Sar][Sar]-NH2) | 17.5% (ν/ν) | improved cell survival compared to XT Formula alone |  | 
CCC(C)NCC(=O)N(CC(=O)N(CCO)CC(=O)N(CCO)CC(=O)N(CC(=O)N(CC(=O)N(CCO)CC(=O)N(CCO)CC(=O)N(CC(=O)N(CC(N)=O)C(C)CC)C(C)CC)C(C)CC)C(C)CC)C(C)CC (stereo not drawn) [Compound 74, Nsb-Nsb-Nhe-Nhe-Nsb-Nsb-Nhe-Nhe-Nsb-Nsb] | 15.0% (ν/ν) |  | improved cell viability compared to XT Formula alone | 
CCC(C)NCC(=O)N(CC(=O)N(CC(=O)N(CC(=O)N(CC(=O)N(CC(=O)N(CC(=O)N(CC(=O)N(CC(=O)N(CC(N)=O)C(C)CC)C(C)CC)C(C)CO)C(C)CO)C(C)CC)C(C)CC)C(C)CO)C(C)CO)C(C)CC (stereo not drawn) [Compound 75, Nsb-Nsb-Nyp-Nyp-Nsb-Nsb-Nyp-Nyp-Nsb-Nsb] | 15.0% (ν/ν) | improved cell survival compared to XT Formula alone |  | 
C[S+](C)[O-] [DMSO, dimethyl sulfoxide, reference compound] |  |  |  | toxicity by MTT assay [5]: did not allow for warm survival for an extended period of time at any concentration above 0.5% (v/v); cytotoxicity (cell persistence) ([3]; DMEM+10% DMSO): suffered significant toxicity
